Experimental findings from US11634458B2, “Peptides and compositions for use in cosmetics and medicine” (LIPOTRUE, S.L., priority 2018, dated 2023) are described below.

The subject of experiment [1] is LAN cells. Nature of the experiment: Measurement of acetylcholine release in differentiated LAN cells stimulated with 50 mM KCl. The note with it: 1 hour treatment, 0.001, 0.005 and 0.01 mg/mL (Ac-SEQ ID NO: 8-NH2: 0.005 and 0.05 mg/mL). It is filed as cell-based. The procedure: Said peptides were tested for their ability to modulate acetylcholine release in vitro. To that end, LAN cells were seeded on 48-well culture plates and allowed to reach the appropriate confluence under controlled conditions (37° C., 5% CO2) before inducing differentiation by replacing the culture media with Neurobasal® A media, supplemented with N-2 Supplement, GlutaMAX™, choline chloride and Leukemia Inhibition factor (GIBCO, Life technologies, MA, USA). Once the cells acquired its differentiated morphology, they were treated with the peptides mentioned above at the following concentrations for 1 hour: all peptides, except Ac-SEQ ID NO: 8-NH2, at 0.001 mg/mL, 0.005 mg/mL and 0.01 mg/mL; and peptide Ac-SEQ ID NO: 8-NH2 at 0.005 mg/mL and 0.05 mg/mL. Cells were then washed with HEPES, before stimulation of acetylcholine release by depolarization with external 50 mM KCl solution. Non-stimulated cells were incubated with non-depolarizing 4 mM KCl solution. After 30 minutes of incubation with the corresponding depolarizing or non-depolarizing KCl solution, cell supernatants were collected and used to measure acetylcholine levels with Amplex Red Acetylcholine Assay Kit (ThermoFisher Scientific, MA, USA). Cell pellets were used to determine protein content by BCA Protein Test Assay (Pierce BCA Protein Assay kit, ThermoFisher Scientific, MA, USA) (for data normalization purposes).
Percentage of acetylcholine release inhibition was calculated considering 100% release for the positive control (non-treated stimulated with KCl cells).

Experiment [2] has as its target Munc18/Syntaxin-1 (Homo sapiens, UniProt Q16623). Nature of the experiment: ELISA-based in vitro Munc18/Syntaxin-1 binding assay. The following applies: peptide 0.1, 0.5 and 1 mM; Munc18 100 nM, Syntaxin-1 10 and 5 nM; control = 100% binding. The procedure: The capacity of the peptides to inhibit Munc18 protein-protein interaction with Syntaxin-1, a SNARE complex protein, was functionally evaluated by means of an ELISA-based in vitro Munc18/Syntaxin-1 binding assay. Briefly, the above-mentioned peptides at 0.1, 0.5 and 1 mM were preincubated with their target protein Syntaxin-1 (GST-tagged) at 10 and 5 nM in buffer (20 mM Hepes, 150 mM NaCl, 2 mM MgC2, 2 mM DTT, 0.5% Triton-X100 and 0.5% non-fat milk) for 3 hours at RT. Meanwhile, His-tagged Munc18 was bound to a Nickel-coated 96-well plate at 100 nM and incubated at RT for 1.5 hours. Non-bound protein was subsequently washed away before blocking wells with non-fat milk in wash buffer (PBS+0.02% Triton-X100) for additional 30 minutes. GST-tagged Syntaxin-1 preincubated with the peptides was then added at 10 and 5 nM to the plate and incubated for 2 h at RT. Wells were washed three times with wash buffer before incubation with the primary antibody (GST tag polyclonal antibody—Thermofisher Scientific, Massachusetts, USA) for 45 minutes. Finally, after washing again, HRP-conjugated secondary antibody (Anti-Rabbit-IgG-HRP—Sigma, Missouri, USA) was added and incubated at RT. TMB substrate (3,3′,5,5′-Tetramethylbenzidine) was used to develop signal. […] Amount of binding of Syntaxin-1 protein to Munc18 protein was analysed by measuring absorbance at 450 nm.

In experiment [3] the test system is collagen type I. Briefly: Collagen type I production by fibroblasts (competitive ELISA). Format: cell-based, human. The following applies: vs non-treated cells. As to the method: The potential of said peptide Ac-SEQ ID NO: 8-NH2 to modulate the production of collagen type I as a potential improver of skin firming was evaluated in vitro using human skin fibroblasts.
Cell were seeded in 96-well plates at 1×10^4 cells/well and maintained for 24 h at standard culture conditions (37° C., 95% humidity, 5% CO2). After 24 h incubation, medium was removed and new medium containing the peptide Ac-SEQ ID NO: 8-NH2 at 0.01, 0.05 or 0.1 mg/mL was added to the wells concentration. Treatment lasted 24 hours or 48 hours and at the end of the assay cell culture media were collected. Cells treated only with culture medium were used as basal control (non-treated cells).
After 24 and 48 hours of treatment the amount of collagen type I produced and released by the cells (ex-novo collagen type I synthesis) was measured in cell culture medium by means of ELISA assay. The results of the test item were compared to basal control condition (non-treated cells). The treatments were performed in triplicate in three different experimental sessions.
The determination of collagen type I synthesis was carried out by means of a competitive ELISA method. Samples were added to enzyme wells which were pre-coated with antibodies, then the recognition antigen labeled with Horseradish peroxidase (HRP) was added; after being incubated 1 hour at 37° C., both compete with solid phase antigen and form immune complex. After washing with phosphate buffer solution, the combined HRP catalyzes Tetramethylbenzidine (TMB) into blue, and turns into yellow by the action of acid; it has an absorption peak under 450 nm wavelength and its absorbance is negatively correlated with antigen density of sample. The plates were read by microplate reader.
The quantitative determination uses a calibration curve made-up of known and growing concentrations of standard collagen type 1. The results are expressed as collagen type I concentration (μg/ml) in 50 μL cell culture medium.
Three trials were performed for each determination in three different experimental sessions. The % variation in collagen type I content between negative controls and samples was calculated and a direct index of the efficacy of the peptide to increase collagen I synthesis was obtained.
Background: In an ELISA, binding on a coated surface is turned into a signal by an enzyme label.

Sequence of Munc18/Syntaxin-1 (Q16623 whole entry): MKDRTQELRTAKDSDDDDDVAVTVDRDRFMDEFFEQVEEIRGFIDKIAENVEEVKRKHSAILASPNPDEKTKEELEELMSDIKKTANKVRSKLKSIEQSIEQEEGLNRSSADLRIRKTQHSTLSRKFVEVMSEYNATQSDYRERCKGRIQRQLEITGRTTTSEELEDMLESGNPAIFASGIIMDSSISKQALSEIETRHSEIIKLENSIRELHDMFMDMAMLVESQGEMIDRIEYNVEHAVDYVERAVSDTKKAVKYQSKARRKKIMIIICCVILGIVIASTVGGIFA

On to “Ac-His-Ala-Leu-Arg-Phe-Trp-NH2 [Ac-SEQ ID NO: 8-NH2]”, for which the “Result: modulation of acetylcholine release” value in experiment [1] was “Active in the modulation of”. Also, the “Maximum inhibition of Munc18-Syntaxin-1 binding” value in experiment [2] is listed as 37%. Moreover, the “increase of collagen type I production” value was found to be 9% in experiment [3] (0.01 mg/mL, 24 h); 16% in experiment [3] (0.01 mg/mL, 48 h); 31% in experiment [3] (0.05 mg/mL, 24 h); 29.5% in experiment [3] (0.05 mg/mL, 48 h); 37.5% in experiment [3] (0.1 mg/mL, 24 h); 56.5% in experiment [3] (0.1 mg/mL, 48 h).
